This passage reports drug sensitivity score results from the supplement of paper PMC4862054.

The structures appear in SMILES notation. Values joined by “and” are separate entries in the source; they are usually repeats but may differ in a detail not shown here. Equal values may be shown once.

What all share (assay): drug sensitivity score (DSS), CellTiter-Blue viability (DSS (AUC-based score)); higher = stronger viability inhibition; extreme values may be limits of the assay
Conditions in all cases: incubation time: 72 h
In general terms: The colour change of resazurin is a common sign of viable cells or microbes.

For assay [1], the system named is MDA-MB-436. Here is the method:
(§1)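 DSRT with the CellTiter-Blue (resazurin reduction) viability readout, fluorescence 560/590 nm, 72 h incubation. Plates were normalised to DMSO and benzethonium chloride controls. DSS is computed from the area under the fitted dose-response curve (5 or 9 concentrations).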

The test system of assay [2] is CAL-120. Here is the method: as §1
The subject of assay [3] is MFM-223. Here is the method: as §1
In assay [4] the test system is CAL-85-1. Here is the method:
as §1

For assay [5], the system named is CAL-148. Here is the method:
as §1

Assay [6] relates to HCC1937. Here is the method:
as §1

For `Cc1c(C(=O)Nc2ccc(N3C[C@@H](C)O[C@@H](C)C3)nc2)cccc1-c1ccc(OC(F)(F)F)cc1` [NVP-LDE225], the drug sensitivity score in assay [1], in assay [2], in assay [3], in assay [4], in assay [5] and in assay [6] was 0 throughout.
For `O=C(c1cc(Cc2n[nH]c(=O)c3ccccc23)ccc1F)N1CCN(C(=O)C2CC2)CC1` [Olaparib], the drug sensitivity score in assay [1] was determined as 0; in assay [2] it was 0; in assay [3], 0; in assay [4], 0; in assay [5] it was 0; in assay [6], 11.2.
Consider `CO[C@H](C(=O)[C@@H](O)[C@@H](C)O)[C@@H]1Cc2cc3cc(O[C@H]4C[C@@H](O[C@@H]5C[C@@H](O)[C@H](O)[C@@H](C)O5)[C@H](O)[C@@H](C)O4)c(C)c(O)c3c(O)c2C(=O)[C@H]1O[C@H]1C[C@@H](O[C@@H]2C[C@@H](O)[C@@H](O[C@@H]3C[C@](C)(O)[C@H](O)[C@@H](C)O3)[C@@H](C)O2)[C@H](O)[C@@H](C)O1` [Plicamycin], for which the drug sensitivity score in assay [1] is 23.3 and 27.5; in assay [2], 22.5 and 23.6; in assay [3], 18.2 and 19; in assay [4] it was 22.8 and 23.8; in assay [5], 25.6 and 24.2; in assay [6], 21.1 and 22.3.
On to `C[C@]12C=CC(=O)C=C1CC[C@@H]1[C@@H]2C(=O)C[C@@]2(C)[C@H]1CC[C@]2(O)C(=O)CO` [Prednisone], for which the drug sensitivity score in assay [1], in assay [2], in assay [3], in assay [4], in assay [5] and in assay [6] was 0 in each case.
Turning to `CO[C@H]1C[C@@H]2CC[C@@H](C)[C@@](O)(O2)C(=O)C(=O)N2CCCC[C@H]2C(=O)O[C@H]([C@H](C)C[C@@H]2CC[C@@H](O)[C@H](OC)C2)CC(=O)[C@H](C)/C=C(\C)[C@@H](O)[C@@H](OC)C(=O)[C@H](C)C[C@H](C)/C=C/C=C/C=C/1C` [Sirolimus], the drug sensitivity score in assay [1] was found to be 0; in assay [2] it was 17.3; in assay [3], 21.3; in assay [4], 17; in assay [5] it was 19.8; in assay [6], 20.4.
As for `CN1CCN(c2nc(C3=C(c4c[nH]c5ccccc45)C(=O)NC3=O)c3ccccc3n2)CC1` [Sotrastaurin], the drug sensitivity score in assay [1], in assay [2], in assay [3], in assay [4], in assay [5] and in assay [6] was 0 each time.
Take `CC/C(=C(\c1ccccc1)c1ccc(OCCN(C)C)cc1)c1ccccc1` [Tamoxifen]: the drug sensitivity score was 2.35 in assay [1]; 0 in assay [2]; 0 in assay [3]; 0 in assay [4]; 0 in assay [5]; 0 in assay [6].
For the molecule `COc1cc2c(N3CCN(C(=O)Nc4ccc(OC(C)C)cc4)CC3)ncnc2cc1OCCCN1CCCCC1` [Tandutinib], the drug sensitivity score in assay [1] amounted to 0; in assay [2], 0; in assay [3], 0; in assay [4], 0; in assay [5], 0.668; in assay [6], 0.
With `C[C@@H](C(=O)O)c1ccc(-c2ccccc2)c(F)c1` [Tarenflurbil], the drug sensitivity score in assay [1], in assay [2], in assay [3], in assay [4], in assay [5] and in assay [6] was 0 each time.
For the molecule `Cn1nnc2c(C(N)=O)ncn2c1=O` [Temozolomide], the drug sensitivity score in assay [1], in assay [2], in assay [3], in assay [4], in assay [5] and in assay [6] was 0 throughout.
Turning to `CC[C@@H]1C(=O)N(C)c2cnc(Nc3ccc(C(=O)N[C@H]4CC[C@H](N5CCN(CC6CC6)CC5)CC4)cc3OC)nc2N1C(C)C` [Volasertib], the drug sensitivity score in assay [1] came out at 3.18; in assay [2], 20.5; in assay [3], 16.9; in assay [4], 10.9; in assay [5], 17.8; in assay [6], 16.3.
